21 compounds from US20230201202A1, “COMPOSITIONS AND METHODS FOR SENSITIZING ACUTE MYELOID LEUKEMIAS TO CHEMOTHERAPY” (Duke University, priority 2020, published 2023) can be followed below.

Common to all, as to type: cell-based
One test deals with AML cells. Briefly: In vitro drug sensitivity assay (GI50 assay, CellTiter-Glo). Particulars: for Chemosensitization of AML cells by inhibitors of alternative PI3K catalytic isoforms (p110α, p110β, p110δ): sensitivity to doxorubicin, S63845 or selinexor (FIG. 3b); for Sensitization of AML cells to the drug by IPI-549 treatment; GI50 of combination vs drug alone: indicated AML cell lines (FIG. 3a-b); for Chemosensitization to the drug mediated by PI3Kγ inhibition with IPI-549: OCI-AML2 cells (FIG. 6). The protocol: AML cells were plated in 96-well plates at a density of 5,000-10,000 cells per 100 μL per well. Wells were treated with drug dilution series at the doses indicated and cultured for 72 hours. Subsequently, relative cell viability was approximated using Promega CellTiter-Glo Luminescent Cell Viability Assay, normalized to either DMSO or the indicated background drug. GI50 values where approximated from dose-response curves plotted using GraphPad/Prism 8 software.

The subject of test [1] is phosphorylation of AKT and downstream substrates. Kind of test: Western immunoblotting of AKT pathway phosphorylation in AML cell lines. Particulars: for Phosphorylation of AKT and its downstream substrates: cell line models of AML, immunoblot (FIG. 1d, FIG. 4b). In general terms: A western blot detects proteins with antibodies after separation by electrophoresis.
The next test concerns phosphorylation of AKT. Kind of test: Conditioned media and SDF1-a cytokine experiments (AKT activation in AML cells). Here is the method: Serum free RPMI-1640 medium with incubated with a confluent plate of HS-5 cells for 36 hours. Conditioned media was centrifuged at 1200 rpm for 5 minutes and filtered with a 0.45 uM filter to remove any remaining cells. AML cells were incubated with conditioned media with or without IPI-549 for 30 minutes prior to harvesting on ice for lysate preparation. An analogous strategy was performed with SDF-1a (200 ng/mL) containing media. SDF-1a was purchased from ProteinTech and solubilized in water.

`Cc1nc(NC(=O)N2CCC[C@H]2C(N)=O)sc1-c1ccnc(C(C)(C)C(F)(F)F)c1` [BYL-719, Alpelisib]: the “Chemosensitization of AML cells by inhibitors of alternative PI3K catalytic isoforms (p110α, p110β, p110δ)” value in the test with AML cells is reported as “not observed”. Further, in test [1], the “Phosphorylation of AKT and its downstream substrates” value is listed as “minimally capable of suppressing”. Consider `C[C@H](NC(=O)c1c(N)nn2cccnc12)c1cc2cccc(C#Cc3cnn(C)c3)c2c(=O)n1-c1ccccc1` [IPI-549], for which the “Correlation of sensitivity (GI50) to IPI-549 with sensitivity to AKT inhibition with MK-2206” value in the test on AML cells (panel of 10 AML cell lines (FIG. 5b-d)) was “strongly correlated”. In addition, the “Activation of AKT signaling by media conditioned with human BM-MSCs (HS-5)” value in the test with phosphorylation of AKT (HL-60 (500 nM) and OCI-AML3 (100 nM IPI-549) cells (FIG. 1g)) is reported as “fully precluded”. The “Activation of AKT by SDF1α (CXCL12) stimulation” value in the test on phosphorylation of AKT (serum-deprived AML cells, 200 ng/mL SDF1α, HL-60 500 nM, OCI-AML3 100 nM IPI-549 (FIG. 1h)) is “prevented”. Moreover, the “Phosphorylation of AKT and its downstream substrates” value in test [1] is recorded as “lost”. In the case of `Cc1sc2c(c1C)C(c1ccc(Cl)cc1)=N[C@@H](CC(=O)OC(C)(C)C)c1nnc(C)n1-2` [JQ1], the “Sensitization of AML cells to the drug by IPI-549 treatment; GI50 of combination vs drug alone” value (from here on “Sensitization of AML cells … vs drug alone”) in the test with AML cells was “can sensitize”. As for `CC(C)n1nc(-c2ccc3oc(N)nc3c2)c2c(N)ncnc21` [MLN-128], in the test on AML cells (panel of AML cell lines (FIG. 2d, FIG. 5g)), the “Effect on potency of AKT/p110γ inhibition (MK-2206 or IPI-549); GI50 of combination vs single drug” value is given as “enhanced the potency”. On to `O=C(Nc1ccc2[nH]nc(-c3ccncc3)c2c1)[C@@H]1CCN(CC(=O)N2CCN(c3ccc(-c4ncccn4)cc3)CC2)C1` [SCH772984], for which the “Sensitization of AML cells … vs drug alone” value in the test on AML cells was “can sensitize”. In the case of `Cc1cc(C(C)Nc2ccccc2)c2nc(N3CCOCC3)cc(=O)n2c1` (stereo not drawn) [TGX-221], the “Chemosensitization of AML cells by inhibitors of alternative PI3K catalytic isoforms (p110α, p110β, p110δ)” value with AML cells was “not observed”. Turning to `Nc1ncn([C@@H]2O[C@H](CO)[C@@H](O)[C@H]2O)c(=O)n1` [azacytidine], in the test on AML cells, the “Chemosensitization to the drug mediated by PI3Kγ inhibition with IPI-549” value was “not observed”. For `Cc1c(-c2c(-c3ccc(F)o3)sc3ncnc(O[C@H](Cc4ccccc4OCc4ccnn4CC(F)(F)F)C(=O)O)c23)ccc(OCCN2CCN(C)CC2)c1Cl` [compound 563845], the “Sensitization of AML cells … vs drug alone” value with AML cells is listed as “can sensitize”. For `Nc1ccn([C@@H]2O[C@H](CO)[C@@H](O)[C@@H]2O)c(=O)n1` [cytarabine], the “Chemosensitization to the drug mediated by PI3Kγ inhibition with IPI-549” value in the test on AML cells is on record as “not observed”. Consider `COc1cccc2c1C(=O)c1c(O)c3c(c(O)c1C2=O)C[C@@](O)(C(C)=O)C[C@@H]3O[C@H]1C[C@H](N)[C@H](O)[C@H](C)O1` [daunorubicin], for which the “Daunorubicin sensitivity under p110α inhibition; GI50 of combination vs daunorubicin alone” value in the test on AML cells (any of the AML models tested (FIG. 2e; legend prints BYL-549)) is on record as “did not alter”. For the same compound, the “Daunorubicin sensitivity under p110γ inhibition (IPI-549); GI50 of combination vs daunorubicin alone” value in the test on AML cells (in 9/10 AML cell lines tested (FIG. 2e)) is given as “significantly potentiated”. In addition, the “Sensitization of AML cells … vs drug alone” value with AML cells is reported as “can sensitize”. Take `CC(=O)O[C@@]12CO[C@@H]1C[C@H](O)[C@@]1(C)C(=O)[C@H](O)C3=C(C)[C@@H](OC(=O)[C@H](O)[C@@H](NC(=O)OC(C)(C)C)c4ccccc4)C[C@@](O)([C@@H](OC(=O)c4ccccc4)[C@H]21)C3(C)C` [docetaxel]: the “Chemosensitization to the drug mediated by PI3Kγ inhibition with IPI-549” value in the test with AML cells was “not observed”. Regarding `COc1cccc2c1C(=O)c1c(O)c3c(c(O)c1C2=O)C[C@@](O)(C(=O)CO)C[C@@H]3O[C@H]1C[C@H](N)[C@H](O)[C@H](C)O1` [doxorubicin], the “Sensitization of AML cells … vs drug alone” value with AML cells is listed as “can sensitize”. With `COc1cc([C@@H]2c3cc4c(cc3[C@@H](O[C@@H]3O[C@@H]5CO[C@@H](C)O[C@H]5[C@H](O)[C@H]3O)[C@H]3COC(=O)[C@H]23)OCO4)cc(OC)c1O` [etoposide], the “Sensitization of AML cells … vs drug alone” value in the test with AML cells is “can sensitize”. In the case of `CN1CC[C@@H](NC(=O)Nc2ccc(C#N)cc2)C[C@@H]1c1nc2ccccc2[nH]1` [glasdegib], in the test with AML cells, the “Chemosensitization to the drug mediated by PI3Kγ inhibition with IPI-549” value is “not observed”.

With `CC(=O)[C@]1(O)Cc2c(O)c3c(c(O)c2[C@@H](O[C@H]2C[C@H](N)[C@H](O)[C@H](C)O2)C1)C(=O)c1ccccc1C3=O` [idarubicin], the “Sensitization of AML cells … vs drug alone” value in the test on AML cells is reported as “can sensitize”. Turning to `CN(Cc1cnc2nc(N)nc(N)c2n1)c1ccc(C(=O)N[C@@H](CCC(=O)O)C(=O)O)cc1` [methotrexate], in the test with AML cells, the “Chemosensitization to the drug mediated by PI3Kγ inhibition with IPI-549” value was “not observed”. On the same count and under the same terms, as for `O=C1[O][Pt]2([NH][C@@H]3CCCC[C@H]3[NH]2)[O]C1=O` [oxaliplatin], the entry is “not observed”. Regarding `CC(C)(C)c1cc(NC(=O)Nc2ccc(-c3cn4c(n3)sc3cc(OCCN5CCOCC5)ccc34)cc2)no1` [quizartinib], the “Sensitization of AML cells … vs drug alone” value with AML cells was “can sensitize”. On to `O=C(/C=C\n1cnc(-c2cc(C(F)(F)F)cc(C(F)(F)F)c2)n1)NNc1cnccn1` [selinexor], for which, in the test on AML cells, the “Sensitization of AML cells … vs drug alone” value is on record as “can sensitize”. For `CNC(=O)c1cc(Oc2ccc(NC(=O)Nc3ccc(Cl)c(C(F)(F)F)c3)cc2)ccn1` [sorafenib], in the test with AML cells, the “Sensitization of AML cells … vs drug alone” value is recorded as “can sensitize”.

For the compound pertussis toxin, in test [1] (AML cell lines, Ptx 100 ng/mL for 24 hours (FIG. 1f)), the AKT phosphorylation result is reported as “diminished”.
